molecular target: T1, B1 bradykinin receptor (Homo sapiens, UniProt P46663); test: Displacement of [3H]Lys-bradykinin from human recombinant bradykinin B1 receptor expressed in CHO cells by scintillation counting; format: cell-based
T1 sequence (P46663 whole entry): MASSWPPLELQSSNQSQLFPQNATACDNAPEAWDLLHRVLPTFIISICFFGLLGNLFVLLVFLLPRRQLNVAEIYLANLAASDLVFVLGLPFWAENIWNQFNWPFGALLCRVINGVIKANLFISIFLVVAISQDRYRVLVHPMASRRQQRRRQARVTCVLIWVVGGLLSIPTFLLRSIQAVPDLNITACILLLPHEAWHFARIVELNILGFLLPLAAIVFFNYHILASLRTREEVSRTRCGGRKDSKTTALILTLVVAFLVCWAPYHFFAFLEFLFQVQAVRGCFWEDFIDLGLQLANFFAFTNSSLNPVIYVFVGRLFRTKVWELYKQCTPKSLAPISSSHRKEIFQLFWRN

In order of falling Ki:
1. COc1cc2c(cc1OC)C(CC(=O)NCCc1ccc(C3=NCCN3)cc1)N(S(=O)(=O)c1ccc(C)cc1)CC2 (racemic)  2 µM
2. Cc1ccc(S(=O)(=O)N2CCc3ccccc3C2CC(=O)NCCc2ccc(C3=NCCN3)cc2)cc1 (racemic)  0.067 µM

molecular target: T2, B1 bradykinin receptor (Homo sapiens) (UniProt P46663); test: Antagonist activity against human recombinant bradykinin B1 receptor expressed in CHO cells assessed as inhibition of [Lys-des-Arg9]bradykinin-induced cytoplasmic calcium release at 5 uM by fluorimetry; format: functional, cell-based
T2 sequence (whole entry): T1 sequence (P46663 whole entry)

In order of rising inhibition:
1. COc1cc2c(cc1OC)C(CC(=O)NC1CCCCCC1)N(S(=O)(=O)c1ccc(C)cc1)CC2 (racemic)  9.3%
2. COc1cc2c(cc1OC)C(CC(=O)NCCCCCCN)N(S(=O)(=O)c1ccc(C)cc1)CC2 (racemic)  10.9%
3. COc1cc2c(cc1OC)C(CC(=O)NCCCCN)N(S(=O)(=O)c1ccc(C)cc1)CC2 (racemic)  15.3%
4. Cc1ccc(S(=O)(=O)N2CCc3ccccc3C2CC(=O)NCCCCN)cc1 (racemic)  15.9%
5. Cc1ccc(S(=O)(=O)N2CCc3ccccc3C2CC(=O)NCCCCCCN)cc1 (racemic)  16.3%
6. COc1cc2c(cc1OC)C(CC(=O)NCCCCNC(=N)N)N(S(=O)(=O)c1ccc(C)cc1)CC2 (racemic)  19%
7. Cc1ccc(S(=O)(=O)N2CCc3ccccc3C2CC(=O)NC2CCCCCC2)cc1 (racemic)  37%
8. Cc1ccc(S(=O)(=O)N2CCc3ccccc3C2CC(=O)NCCCCNC(=N)N)cc1 (racemic)  44.9%
9. COc1cc2c(cc1OC)C(CC(=O)NCCc1ccc(C3=NCCN3)cc1)N(S(=O)(=O)c1ccc(C)cc1)CC2 (racemic)  85.7%
10. Cc1ccc(S(=O)(=O)N2CCc3ccccc3C2CC(=O)NCCc2ccc(C3=NCCN3)cc2)cc1 (racemic)  99%
